A short description of series [1]: Cytotoxicity against HEK293 cells assessed as inhibition of cell viability at 25 ug/ml after 48 hrs by MTT assay relative to control. The format is cell-based. As to conditions: human, read-out: INH. (In general: Formazan colour is commonly taken as a measure of viable cells.)
For series [2], the target named is T1, Enoyl-[acyl-carrier-protein] reductase [NADH] (Mycobacterium tuberculosis) (UniProt P9WGR1).
T1 sequence (whole entry): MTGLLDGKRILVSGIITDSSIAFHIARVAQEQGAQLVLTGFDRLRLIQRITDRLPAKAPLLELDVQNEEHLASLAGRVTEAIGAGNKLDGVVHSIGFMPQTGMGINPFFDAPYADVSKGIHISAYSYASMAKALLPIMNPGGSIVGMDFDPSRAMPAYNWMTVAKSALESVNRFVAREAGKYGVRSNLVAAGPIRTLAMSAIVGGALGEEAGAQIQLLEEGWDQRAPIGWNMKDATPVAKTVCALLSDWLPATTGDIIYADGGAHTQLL
Kind of series: Inhibition of replicating Mycobacterium tuberculosis H37Rv InhA assessed as cell growth inhibition after 7 days by MABA method.

≈ marks a conversion by molar mass, not a printed value.

Turning to `CSc1ccc(-c2ccc(C(=O)NNC(=O)c3ccc(F)cc3)o2)cc1`, the cytotoxicity at 48 h, 25 ug/ml in series [1] amounted to 27%. Moreover, the MIC in series [2] came out at 0.39 µg/mL (≈ 1.05 µM).

For the molecule `O=C(NNC(=O)[C@H](Cc1ccc(O)cc1)NC(=O)c1ccc(-c2ccccc2)o1)c1ccc(Br)cc1`, the cytotoxicity at 48 h, 25 ug/ml in series [1] worked out at 16.3%. The MIC in series [2] was determined as 0.78 µg/mL (≈ 1.42 µM).

As for `O=C(NNC(=O)[C@H](Cc1ccc(O)cc1)NC(=O)c1ccc(Br)o1)c1ccc(Cl)cc1`, the MIC in series [2] was 12.5 µg/mL (≈ 24.7 µM).

As for `CC(C)(C)c1ccc(C(=O)NNC(=O)[C@H](Cc2ccc(O)cc2)NC(=O)c2ccc(-c3ccccc3)o2)cc1`, the cytotoxicity at 48 h, 25 ug/ml in series [1] was determined as 18.7%. Further, the MIC in series [2] is 0.78 µg/mL (≈ 1.48 µM).

Take `O=C(NNC(=O)[C@H](Cc1ccc(O)cc1)NC(=O)c1ccc(-c2ccc(F)cc2)o1)c1ccc(Br)cc1`: in series [2], the MIC is 25 µg/mL (≈ 44.1 µM).

Regarding `COc1ccc(C(=O)NNC(=O)c2ccc(-c3ccc(SC)cc3)o2)cc1`, the cytotoxicity at 48 h, 25 ug/ml in series [1] was 17.4%. Also, the MIC in series [2] is 0.78 µg/mL (≈ 2.04 µM).

Take `O=C(NNC(=O)[C@H](Cc1ccc(O)cc1)NC(=O)c1ccc(Br)o1)c1ccc(F)cc1`: in series [2], the MIC is > 25 µg/mL.

Turning to `O=C(NNC(=O)[C@H](Cc1ccc(O)cc1)NC(=O)c1ccc(-c2ccc(F)cc2)s1)c1ccc(F)cc1`, the cytotoxicity at 48 h, 25 ug/ml in series [1] came out at 22.9%. For the same molecule, the MIC in series [2] worked out at 6.25 µg/mL (≈ 12 µM).

`CSc1ccc(-c2ccc(C(=O)NNC(=O)c3ccc(C(C)(C)C)cc3)o2)cc1`: the cytotoxicity at 48 h, 25 ug/ml in series [1] came out at 10.6%. In addition, the MIC in series [2] was determined as 6.25 µg/mL (≈ 15.3 µM).

In the case of `CC(C)(C)c1ccc(C(=O)NNC(=O)[C@H](Cc2ccc(O)cc2)NC(=O)c2ccc(Br)o2)cc1`, the cytotoxicity at 48 h, 25 ug/ml in series [1] is 26.6%. Further, in series [2], the MIC stood at 3.12 µg/mL (≈ 5.91 µM).

For the molecule `O=C(NNC(=O)[C@H](Cc1ccc(O)cc1)NC(=O)c1ccc(-c2ccc(F)cc2)s1)c1ccc(Cl)cc1`, the cytotoxicity at 48 h, 25 ug/ml in series [1] was 17%. For the same molecule, in series [2], the MIC worked out at 0.78 µg/mL (≈ 1.45 µM).

Take `Cc1ccc(C(=O)NNC(=O)c2ccc(-c3ccccc3S(C)(=O)=O)o2)cc1`: in series [1], the cytotoxicity at 48 h, 25 ug/ml turned out to be 22.9%. Besides, the MIC in series [2] was found to be 3.12 µg/mL (≈ 7.84 µM).

With `COc1ccc(C(=O)NNC(=O)[C@H](Cc2ccc(O)cc2)NC(=O)c2ccc(-c3ccc(OC)cc3)o2)cc1`, in series [1], the cytotoxicity at 48 h, 25 ug/ml worked out at 29.9%. The MIC in series [2] was determined as 0.78 µg/mL (≈ 1.47 µM).

Regarding `COc1ccccc1C(=O)NNC(=O)c1ccc(-c2ccc(SC)cc2)o1`, the MIC in series [2] stood at 12.5 µg/mL (≈ 32.7 µM).

Take `COc1ccc(C(=O)NNC(=O)[C@H](Cc2ccc(O)cc2)NC(=O)c2ccc(Br)o2)cc1`: the MIC in series [2] is > 25 µg/mL.

For `Cc1ccc(C(=O)NNC(=O)[C@H](Cc2ccc(O)cc2)NC(=O)c2ccc(-c3ccccc3)o2)cc1`, the MIC in series [2] was 12.5 µg/mL (≈ 25.9 µM).

`O=C(NNc1nc2ccccc2s1)c1ccc(-c2ccccc2)o1`: the MIC in series [2] was 25 µg/mL (≈ 74.5 µM).

Regarding `NNC(=O)c1ccncc1`, the MIC in series [2] is 0.1 µg/mL (≈ 0.729 µM).

For the molecule `CC[C@@H](CO)NCCN[C@@H](CC)CO`, the MIC in series [2] was determined as 1.56 µg/mL (≈ 7.64 µM).

Regarding `O=C(N[C@@H](Cc1ccc(O)cc1)C(=O)NNC(=O)c1ccccc1F)c1ccc(-c2ccc(F)cc2)s1`, the MIC in series [2] was > 25 µg/mL.

For `CO[C@H]1/C=C/O[C@@]2(C)Oc3c(C)c(O)c4c(O)c(c(/C=N/N5CCN(C)CC5)c(O)c4c3C2=O)NC(=O)/C(C)=C\C=C\[C@H](C)[C@H](O)[C@@H](C)[C@@H](O)[C@@H](C)[C@H](OC(C)=O)[C@@H]1C`, the MIC in series [2] worked out at 0.2 µg/mL (≈ 0.243 µM).

For `CSc1ccc(-c2ccc(C(=O)NNC(=O)c3ccco3)o2)cc1`, the cytotoxicity at 48 h, 25 ug/ml in series [1] was determined as 11.6%. Further, in series [2], the MIC was found to be 6.25 µg/mL (≈ 18.3 µM).

On to `CSc1ccc(-c2ccc(C(=O)NNC(=O)c3ccc(O)cc3)o2)cc1`, for which the cytotoxicity at 48 h, 25 ug/ml in series [1] stood at 17.4%. In addition, in series [2], the MIC was determined as 0.78 µg/mL (≈ 2.12 µM).

With `COc1ccc(C(=O)NNC(=O)c2ccc(-c3ccccc3SC)s2)cc1`, the MIC in series [2] is > 25 µg/mL.

`COc1ccc(C(=O)NNC(=O)[C@H](Cc2ccc(O)cc2)NC(=O)c2ccc(-c3ccc(F)cc3)s2)cc1`: in series [1], the cytotoxicity at 48 h, 25 ug/ml is 23.6%. Besides, the MIC in series [2] worked out at 1.56 µg/mL (≈ 2.92 µM).

In the case of `CSc1ccc(-c2ccc(C(=O)NNC(=O)c3ccccc3F)o2)cc1`, in series [1], the cytotoxicity at 48 h, 25 ug/ml turned out to be 16.9%. In addition, the MIC in series [2] stood at 6.25 µg/mL (≈ 16.9 µM).

The values above are taken from ChEMBL document CHEMBL4270581, “Synthesis of carbohydrazides and carboxamides as anti-tubercular agents” (Eur J Med Chem, 2018).
